The subject of one data set is Phakopsora pachyrhizi. Kind of data set: Phakopsora pachyrhizi / soybean / leaf disk preventative (soybean rust). Particulars: foliar, soybean leaf disks, compared to untreated control leaf disks, read-out: disease control. Format: in vivo. As for the experimental part:
Phakopsora pachyrhizi/Soybean/Leaf Disk Preventative (Soybean Rust) Four-week old soybean plants are sprayed in a spray chamber with the formulated test compound diluted in water. Leaf disks are cut from treated plants and placed on agar into 24-well plates one day after application. Leaf disks are inoculated by spraying them with a spore suspension on their lower leaf surface. After an incubation period in a climate cabinet of 24-36 hours in darkness at 20° C. and 75% rh, the leaf disks are then kept at 20° C. with 12 h light/day and 75% rh. The percentage leaf disk area covered by disease is assessed when an appropriate level of disease appears on untreated check plants (12-14 days after application).

In data set [1] the test system is Blumeria graminis f. sp. tritici (Erysiphe graminis f. sp. tritici). The data set can be described thus: Blumeria graminis f. sp. tritici / wheat / leaf disc preventative (powdery mildew on wheat). In kind it is in vivo. Conditions: foliar, wheat leaf segments cv. Kanzler, compared to untreated control leaf disks, read-out: disease control. The source says:
Blumeria graminis f. sp. tritici (Erysiphe graminis f. sp. tritici)/Wheat/Leaf Disc Preventative (Powdery Mildew on Wheat) Wheat leaf segments cv. Kanzler were placed on agar in a multiwell plate (24-well format) and sprayed with the formulated test compound diluted in water. The leaf disks were inoculated by shaking powdery mildew infected plants above the test plates 1 day after application.

In data set [2] the test system is Puccinia recondita f. sp. tritici. Kind of data set: Puccinia recondita f. sp. tritici / wheat / leaf disc curative (brown rust). In kind it is in vivo. Particulars: foliar, 24 h, wheat leaf segments cv. Kanzler, curative (applied 1 day after inoculation), compared to untreated control leaf disks, read-out: disease control. As for the experimental part:
Puccinia recondita f. sp. tritici/Wheat/Leaf Disc Curative (Brown Rust) Wheat leaf segments cv. Kanzler are placed on agar in multiwell plates (24-well format). The leaf segments are inoculated with a spore suspension of the fungus. Plates were stored in darkness at 19° C. and 75% rh. The formulated test compound diluted in water was applied 1 day after inoculation.

Data set [3] has the same test system. The data set can be described thus: Puccinia recondita f. sp. tritici / wheat / leaf disc preventative (brown rust). In kind it is in vivo. Conditions: foliar, wheat leaf segments cv. Kanzler, compared to untreated control leaf disks, read-out: disease control. The method, then: Puccinia recondita f. sp. tritici/Wheat/Leaf Disc Preventative (Brown Rust) Wheat leaf segments cv. Kanzler were placed on agar in multiwell plates (24-well format) and sprayed with the formulated test compound diluted in water. The leaf disks were inoculated with a spore suspension of the fungus 1 day after application. The inoculated leaf segments were incubated at 19° C. and 75% rh under a light regime of 12 h light/12 h darkness in a climate cabinet and the activity of a compound was assessed as percent disease control compared to untreated when an appropriate level of disease damage appears in untreated check leaf segments (7-9 days after application).

Regarding `CCN(C)/C=N/c1cc(OC)c(C(O)(C2CCC2)C(F)(F)F)cc1C` (stereo not drawn) [Compound E1.069], the pest or weed control at 200 ppm (with Phakopsora pachyrhizi; in data set [1]; in data set [2]; in data set [3]) was at least 80% each time.
As for `C=C(C)CC(O)(c1cc(C)c(/N=C/N(C)CC)cc1OC)C(F)(F)F` (stereo not drawn) [Compound E1.075], the pest or weed control at 200 ppm (in the data set on Phakopsora pachyrhizi; in data set [1]; in data set [2]; in data set [3]) was at least 80% in each case.
`CCN(C)/C=N/c1cc(OC)c(C(O)(C=C(C)C)C(F)(F)F)cc1C` (stereo not drawn) [Compound E1.076]: the pest or weed control at 200 ppm (with Phakopsora pachyrhizi; in data set [1]; in data set [2]; in data set [3]) was at least 80% in each case.
As to `C=CC(O)(c1cc(C)c(/N=C/N(C)CC)cc1OC)C(F)(F)F` (stereo not drawn) [Compound E1.077], the pest or weed control at 200 ppm (in the data set on Phakopsora pachyrhizi; in data set [1]; in data set [2]; in data set [3]) was at least 80% in each case.
In the case of `C=C(C)C(O)(c1cc(C)c(/N=C/N(C)CC)cc1OC)C(F)(F)F` (stereo not drawn) [Compound E1.078], the pest or weed control at 200 ppm (in the data set with Phakopsora pachyrhizi; in data set [1]; in data set [2]; in data set [3]) was at least 80% in each case.
`C#CCC(O)(c1cc(C)c(/N=C/N(C)CC)cc1OC)C(F)(F)F` (stereo not drawn) [Compound E1.083]: the pest or weed control at 200 ppm (in the data set on Phakopsora pachyrhizi; in data set [1]; in data set [2]; in data set [3]) was at least 80% in each case.
As to `CCN(C)/C=N/c1cc(OC)c(C(O)(Cc2ccccc2)C(F)(F)F)cc1C` (stereo not drawn) [Compound E1.086], the pest or weed control at 200 ppm (in the data set with Phakopsora pachyrhizi; in data set [1]; in data set [2]; in data set [3]) was at least 80% throughout.
Turning to `CCN(C)/C=N/c1cc(OC)c(C(O)(Cc2ccc(C)cc2)C(F)(F)F)cc1C` (stereo not drawn) [Compound E1.087], the pest or weed control at 200 ppm (with Phakopsora pachyrhizi; in data set [1]; in data set [2]; in data set [3]) was at least 80% each time.
In the case of `CCN(C)/C=N/c1cc(OC)c(C(O)(Cn2ncc3ccccc32)C(F)(F)F)cc1C` (stereo not drawn) [Compound E1.093], the pest or weed control at 200 ppm (in the data set with Phakopsora pachyrhizi; in data set [1]; in data set [2]; in data set [3]) was at least 80% in each case.
Turning to `CCN(C)/C=N/c1cc(OC)c(C(O)(Cn2nc(C)c(C)c2C)C(F)(F)F)cc1C` (stereo not drawn) [Compound E1.095], the pest or weed control at 200 ppm (with Phakopsora pachyrhizi; in data set [1]; in data set [2]; in data set [3]) was at least 80% each time.
Regarding `CCN(C)/C=N/c1cc(OC)c(C(O)(Cc2ccnc(F)c2)C(F)(F)F)cc1C` (stereo not drawn) [Compound E1.101], the pest or weed control at 200 ppm (with Phakopsora pachyrhizi; in data set [1]; in data set [2]; in data set [3]) was at least 80% throughout.
In the case of `CCN(C)/C=N/c1cc(OC)c(C(O)(c2cc3ccccc3s2)C(F)(F)F)cc1C` (stereo not drawn) [Compound E1.103], the pest or weed control at 200 ppm (in the data set with Phakopsora pachyrhizi; in data set [1]; in data set [2]; in data set [3]) was at least 80% in each case.
On to `CCN(C)/C=N/c1cc(OC)c(C(O)(c2ccc(C)s2)C(F)(F)F)cc1C` (stereo not drawn) [Compound E1.104], for which the pest or weed control at 200 ppm (in the data set with Phakopsora pachyrhizi; in data set [1]; in data set [2]; in data set [3]) was at least 80% in each case.
As for `CCN(C)/C=N/c1cc(OC)c(C(O)(c2cccs2)C(F)(F)F)cc1C` (stereo not drawn) [Compound E1.105], the pest or weed control at 200 ppm (in the data set with Phakopsora pachyrhizi; in data set [1]; in data set [2]; in data set [3]) was at least 80% throughout.
Turning to `CCN(C)/C=N/c1cc(OC)c(C(O)(c2cccc(Cl)n2)C(F)(F)F)cc1C` (stereo not drawn) [Compound E1.106], the pest or weed control at 200 ppm (in the data set on Phakopsora pachyrhizi; in data set [1]; in data set [2]; in data set [3]) was at least 80% in each case.
With `CCN(C)/C=N/c1cc(OC)c(C(O)(c2cccnc2OC)C(F)(F)F)cc1C` (stereo not drawn) [Compound E1.112], the pest or weed control at 200 ppm (with Phakopsora pachyrhizi; in data set [1]; in data set [2]; in data set [3]) was at least 80% throughout.
Compound `CCN(C)/C=N/c1cc(OC(C)C)c(C(O)(c2ccccc2)C(F)(F)F)cc1C` (stereo not drawn) [Compound E1.115] registered a melting point of 119 to 120 °C.
Take `CCCCC(O)(c1cc(Cl)c(/N=C/N(C)CC)cc1OC)C(F)(F)F` (stereo not drawn) [Compound E1.117]: the pest or weed control at 200 ppm (with Phakopsora pachyrhizi; in data set [1]; in data set [2]; in data set [3]) was at least 80% throughout.
As for `CCN(C)/C=N/c1cc(OC)c(C(O)C(F)(F)Cl)cc1C` (stereo not drawn) [Compound E1.118], the pest or weed control at 200 ppm (in the data set with Phakopsora pachyrhizi; in data set [1]; in data set [2]; in data set [3]) was at least 80% throughout.
As for `CCN(C)/C=N/c1cc(OC)c(C(O)(C(C)C)C(F)(F)Cl)cc1C` (stereo not drawn) [Compound E1.119], the pest or weed control at 200 ppm (with Phakopsora pachyrhizi; in data set [1]; in data set [2]; in data set [3]) was at least 80% throughout.
As to `CCN(C)/C=N/c1cc(OC)c(C(O)(C2CC2)C(F)(F)Cl)cc1C` (stereo not drawn) [Compound E1.120], the pest or weed control at 200 ppm (with Phakopsora pachyrhizi; in data set [1]; in data set [2]; in data set [3]) was at least 80% each time.
In the case of `C=CCC(O)(c1cc(C)c(/N=C/N(C)CC)cc1OC)C(F)(F)Cl` (stereo not drawn) [Compound E1.121], the pest or weed control at 200 ppm (with Phakopsora pachyrhizi; in data set [1]; in data set [2]; in data set [3]) was at least 80% each time.
For the compound `CCN(C)/C=N/c1cc(OC)c(C(O)(c2ccccc2)C(F)(F)Cl)cc1C` (stereo not drawn) [Compound E1.122], the pest or weed control at 200 ppm (with Phakopsora pachyrhizi; in data set [1]; in data set [2]; in data set [3]) was at least 80% throughout.
With `CCN(C)/C=N/c1cc(OC)c(C(O)c2ccccc2)cc1C` (stereo not drawn) [Compound E1.123], the pest or weed control at 200 ppm (in the data set on Phakopsora pachyrhizi; in data set [1]; in data set [2]; in data set [3]) was at least 80% throughout.
On to `COc1cc(/N=C/N(C)C(C)C)c(C)cc1C(O)(c1ccc(F)c(F)c1)C(F)(F)F` (stereo not drawn) [Compound E1.127], for which the melting point is 116 to 118 °C.
As for `CCN(C)/C=N/c1cc(OC)c(C(O)(c2ccc(F)c(F)c2)C(F)(F)F)cc1C` (stereo not drawn) [Compound E1.128], the melting point lay within 108 to 110 °C.
`COc1cc(/N=C/N(C)C(C)C)c(C)cc1C(O)(c1cccc(F)c1C)C(F)(F)F` (stereo not drawn) [Compound E1.131] gave a melting point of 127 to 129 °C.

In general, melting point refers to the temperature, or range, at which the solid turns liquid.

These data come from patent US10723695B2, “Microbiocidal phenylamidine derivatives” (SYNGENTA PARTICIPATIONS AG, priority 2015, dated 2020).
